Like-named read-outs stand apart in the source and are kept apart here.
Test: PK Phase (Group 2): plasma concentrations and pharmacokinetics of Compound 18 and its metabolite Compound 4 after once daily ocular instillation of Compound 18 nanosuspension for 7 days
Type: in vivo, New Zealand white rabbits
Conditions: male, New Zealand white, rabbit, plasma; for concentration at 8 h / concentration at 24 h: 0.821 mg/kg/day; for Cmax / Tmax / AUC(0-t): topical or ocular, 0.8 mg/kg; for AUC(0-t): read-out: AUC0-24
Source text: This example illustrates the procedures and results for the levels of Compound 18 and its metabolite Compound 4 in plasma and ocular tissues of normotensive rabbits following ocular instillation of Compound 18 once daily for 7 consecutive days.
Twenty five (25) male New Zealand white rabbits were divided into 5 groups of varying amounts of animals per group.
The Test article, Compound 18 was formulated as a 2% nanosuspension in DI water containing 0.2% PS80 (polyoxyethylenesorbitan, monooleate (Tween 80)) and 0.4% HPMC (hydroxypropylmethylcellulose) at pH 6.77. Referred to herein as “Compound 18 nanosuspension.”
The study consisted of three groups (Groups 1-3) of 19 male rabbits (NZW) that underwent once daily morning ocular installation (1 eyedrop) for 7 consecutive days (Day 0-6). Groups 4-5 each consisted of 3 male rabbits (NZW) that were not dosed.
Blood samples (1 mL) were collected from the jugular vein at the intervals set out below for each group. The samples were then inverted several times following collection and held on wet ice until centrifuged. Samples were centrifuged within 60 minutes of collection under refrigeration (set at 5° C. for 10 minutes at 2000 g. […]
Plasma and tissue samples from treated animals (Groups 1-3) were analyzed for Compound 18 and its metabolite Compound 4 concentrations by LC-MS/MS.
Pharmacokinetic analysis was conducted using WinNonlin Version 6.2.1 (Pharsight, Mountain View, Calif.), operating as a validated software system. Noncompartmental analysis was conducted using the extravascular administration model for ocular instillation dosing.
The peak plasma concentration, time to achieve peak plasma concentration, half-life, and area under the plasma concentration-time curve (Cmax, Tmax, T1/2, and AUC) were calculated from the PK phase individual animal plasma concentrations for each sampling time/dose group for Compound 18 and its metabolite Compound 4.
BA Assay: Quantitation Range 0.05 to 100 ng/mL for Compound 18, 0.15 to 100 ng/mL for Compound 4.
Plasma calibration standards (PLSTD-A) with Compound 18 concentrations ranging from 0.0500 to 100 ng/mL were prepared by spiking control rabbit plasma with appropriate calibration curve spiking solutions (SS-A). PLQC-A samples with concentrations of 0.150, 5.00, 50.0, and 80.0 ng/mL were prepared by spiking control rabbit plasma with appropriate SS-A-QC spiking solutions.
Plasma calibration standards (PLSTD-B) with Compound 4 concentrations ranging from 0.150 to 100 ng/mL were prepared by spiking control rabbit plasma with appropriate calibration curve spiking solutions (SS-B). PLQC-B samples with concentrations of 0.450, 5.00, 50.0, and 80.0 ng/mL were prepared by spiking control rabbit plasma with appropriate SS-B-QC spiking solutions. PLQC-B-Dil samples at 800 ng/mL were prepared by spiking control rabbit plasma with the SS-B-QC-Dil spiking solution at 16,000 ng/mL, and then diluted 20× with control rabbit plasma prior to extraction.
1. Thaw plasma standards, plasma QC samples, ocular tissue QC samples, incurred plasma samples and ocular tissue samples (AH/VH) (if applicable) on wet ice. Control plasma can be thawed in tepid water. Vortex before taking aliquots.
2. Pipet 50 μL of water for Reagent Blank, 50 μL of control plasma for Double Blank and Blank, 50 μL of pre-spiked plasma for Standards and QC samples, 50 μL of incurred plasma samples (if applicable) into a 96 well plate.
5. Add 200 μL of working internal standard (WIS) solution to all remaining samples.
6. Seal the plate and vortex for approximately 5 minutes. Centrifuge the plate at 3500 rpm for 10 minutes at ˜4° C.
7. Transfer ˜200 μL of each sample supernatant into the appropriate wells of a 96 well plate. Submit for LC MS/MS analysis.
A total of 25 rabbits were used for this study, including 19 treated rabbits and 6 control rabbits. […]

[1] = other: ocular instillation (eye drop), Mean of 4 animals, BQL set to 0, read-out: Day 7 Compound 18 Plasma Concentration
[2] = other: ocular instillation (eye drop), animal 207666, read-out: Day 7 Compound 18 Plasma Concentration
[3] = other: ocular instillation, 0.8 mg/kg/day, Mean of 4 animals, BQL set to 0, read-out: Day 1 Compound 18 Plasma Concentration
[4] = other: ocular instillation, 0.8 mg/kg/day, animal 207666, read-out: Day 1 Compound 18 Plasma Concentration
[5] = other: ocular instillation, 0.8 mg/kg/day, animal 207667, read-out: Day 1 Compound 18 Plasma Concentration
[6] = Day 1, Compound 18 0.8 mg/kg ocular instillation, Mean, n=4
[7] = Day 1, Compound 18 0.8 mg/kg ocular instillation, animal 207664
[8] = Day 1, Compound 18 0.8 mg/kg ocular instillation, animal 207665
[9] = Day 1, Compound 18 0.8 mg/kg ocular instillation, animal 207666
[10] = Day 1, Compound 18 0.8 mg/kg ocular instillation, animal 207667
[11] = Day 7, Compound 18 0.8 mg/kg ocular instillation, Mean, n=4
[12] = Day 7, Compound 18 0.8 mg/kg ocular instillation, animal 207664
[13] = Day 7, Compound 18 0.8 mg/kg ocular instillation, animal 207665
[14] = Day 7, Compound 18 0.8 mg/kg ocular instillation, animal 207666
[15] = Day 7, Compound 18 0.8 mg/kg ocular instillation, animal 207667

For CCCc1nn(C)c2c(=O)[nH]c(-c3cc(S(=O)(=O)N4CC(CCCO[N+](=O)[O-])C4)ccc3OCC)nc12 [Compound 18, 3-(1-((4-ethoxy-3-(1-methyl-7-oxo-3-propyl-6,7-dihydro-1H-pyrazolo[4,3-d]pyrimidin-5-yl)phenyl)sulfonyl)azetidin-3-yl)propyl nitrate], the concentration at 8 h [1] was 0.0279 ng/mL, the concentration at 8 h (other: ocular instillation (eye drop), animal 207665, read-out: Day 7 Compound 18 Plasma Concentration) was 0.0505 ng/mL and the concentration at 8 h [2] was 0.0611 ng/mL. It also gave a concentration at 24 h (other: ocular instillation (eye drop), Mean of 4 animals, BQL set to 0, read-out: Day 1 Compound 18 Plasma Concentration) of 0.0171 ng/mL, a concentration at 24 h [1] of 0.0401 ng/mL and a concentration at 24 h (other: ocular instillation (eye drop), animal 207666, read-out: Day 1 Compound 18 Plasma Concentration) of 0.0682 ng/mL. It also gave a concentration at 24 h [2] of 0.0989 ng/mL, a concentration at 24 h (other: ocular instillation (eye drop), animal 207667, read-out: Day 7 Compound 18 Plasma Concentration) of 0.0614 ng/mL and a concentration at 0.5 h (other: ocular instillation (eye drop), 2 mg/day, animal 207664, read-out: Day 1 Compound 18 Plasma Concentration) of 0.0863 ng/mL. It also gave a concentration at 0.5 h [3] of 0.161 ng/mL, a concentration at 0.5 h (other: ocular instillation, 0.8 mg/kg/day, animal 207665, read-out: Day 1 Compound 18 Plasma Concentration) of 0.0721 ng/mL and a concentration at 0.5 h [4] of 0.313 ng/mL. It also gave a concentration at 0.5 h [5] of 0.171 ng/mL, a concentration at 1 h [3] of 0.0601 ng/mL and a concentration at 1 h [4] of 0.183 ng/mL. The concentration at 1 h [5] was 0.0575 ng/mL, the Cmax [6] was 0.161 ± 0.111 ng/mL and the Tmax [6] was 30 min. It also gave an AUC(0-t) [6] of 0.311 ± 0.488 ng·h/mL, a Cmax [7] of 0.0863 ng/mL and a Tmax [7] of 30 min. For the same compound, the AUC(0-t) [7] was 0.0216 ng·h/mL, the Cmax [8] was 0.0721 ng/mL and the Tmax [8] was 30 min. The AUC(0-t) [8] was 0.018 ng·h/mL, the Cmax [9] was 0.313 ng/mL and the Tmax [9] was 30 min. It also gave an AUC(0-t) [9] of 1.04 ng·h/mL, a Cmax [10] of 0.171 ng/mL and a Tmax [10] of 30 min. It also gave an AUC(0-t) [10] of 0.17 ng·h/mL, a Cmax [11] of 0.17 ± 0.105 ng/mL and a Tmax [11] of 156 ± 216 min. The AUC(0-t) [11] was 0.754 ± 0.794 ng·h/mL, the Cmax [12] was 0.306 ng/mL and the Tmax [12] was 60 min. It also gave an AUC(0-t) [12] of 0.372 ng·h/mL, a Cmax [13] of 0.0505 ng/mL and a Tmax [13] of 480 min. It also gave an AUC(0-t) [13] of 0.101 ng·h/mL, a Cmax [14] of 0.163 ng/mL and a Tmax [14] of 30 min. It also gave an AUC(0-t) [14] of 1.9 ng·h/mL, a Cmax [15] of 0.161 ng/mL and a Tmax [15] of 60 min. For the same compound, the AUC(0-t) [15] was 0.644 ng·h/mL.
